Test results published in ChEMBL document CHEMBL1128130, “Hydroxamate inhibitors of human gelatinase B (92 kDa)” (Bioorg Med Chem Lett, 1995).
pKi: −log10 of the molar value.

Columns and labels:
Interstitial collagenase = target: T1, Interstitial collagenase (Homo sapiens, UniProt P03956)
T1 sequence (P03956 whole entry): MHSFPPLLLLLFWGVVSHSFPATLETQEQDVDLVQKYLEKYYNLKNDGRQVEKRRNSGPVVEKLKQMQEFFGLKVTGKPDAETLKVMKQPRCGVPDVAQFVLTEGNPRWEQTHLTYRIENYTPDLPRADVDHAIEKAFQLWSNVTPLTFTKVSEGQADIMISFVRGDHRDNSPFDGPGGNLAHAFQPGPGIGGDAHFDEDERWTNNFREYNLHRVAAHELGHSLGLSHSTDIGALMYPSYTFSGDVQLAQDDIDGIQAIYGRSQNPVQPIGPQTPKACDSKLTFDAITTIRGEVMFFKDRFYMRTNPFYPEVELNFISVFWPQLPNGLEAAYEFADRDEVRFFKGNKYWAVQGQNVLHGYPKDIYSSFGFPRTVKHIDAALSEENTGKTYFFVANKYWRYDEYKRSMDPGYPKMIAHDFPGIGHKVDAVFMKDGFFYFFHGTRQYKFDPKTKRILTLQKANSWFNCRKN
Description: Inhibition of human fibroblast collagenase, matrix metalloprotease-1

[1] = target: Matrix metalloproteinase-9 (Homo sapiens, UniProt P14780)
Description: Inhibition of human Matrix metalloprotease-9

Neutrophil collagenase = Neutrophil collagenase (Homo sapiens, UniProt P22894)
Description: Inhibition of human Matrix metalloprotease-8

Stromelysin-1 = Stromelysin-1 (Homo sapiens, UniProt P08254)
Sequence of Stromelysin-1 (P08254 whole entry): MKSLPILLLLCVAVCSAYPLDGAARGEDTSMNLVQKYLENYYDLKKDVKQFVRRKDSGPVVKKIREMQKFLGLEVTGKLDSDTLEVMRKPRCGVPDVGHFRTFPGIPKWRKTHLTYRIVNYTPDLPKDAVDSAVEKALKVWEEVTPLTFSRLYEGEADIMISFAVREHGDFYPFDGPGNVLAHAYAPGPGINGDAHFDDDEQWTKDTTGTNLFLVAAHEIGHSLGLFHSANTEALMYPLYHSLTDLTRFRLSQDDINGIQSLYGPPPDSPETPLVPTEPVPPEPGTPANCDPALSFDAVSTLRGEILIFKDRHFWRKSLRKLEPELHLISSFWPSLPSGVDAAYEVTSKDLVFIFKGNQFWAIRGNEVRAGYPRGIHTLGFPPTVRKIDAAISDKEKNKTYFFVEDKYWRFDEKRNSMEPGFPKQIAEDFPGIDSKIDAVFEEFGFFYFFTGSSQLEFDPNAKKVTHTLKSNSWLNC
Description: Inhibition of human fibroblast stromelysin, matrix metalloprotease-3

Sequence of Neutrophil collagenase (P22894 whole entry): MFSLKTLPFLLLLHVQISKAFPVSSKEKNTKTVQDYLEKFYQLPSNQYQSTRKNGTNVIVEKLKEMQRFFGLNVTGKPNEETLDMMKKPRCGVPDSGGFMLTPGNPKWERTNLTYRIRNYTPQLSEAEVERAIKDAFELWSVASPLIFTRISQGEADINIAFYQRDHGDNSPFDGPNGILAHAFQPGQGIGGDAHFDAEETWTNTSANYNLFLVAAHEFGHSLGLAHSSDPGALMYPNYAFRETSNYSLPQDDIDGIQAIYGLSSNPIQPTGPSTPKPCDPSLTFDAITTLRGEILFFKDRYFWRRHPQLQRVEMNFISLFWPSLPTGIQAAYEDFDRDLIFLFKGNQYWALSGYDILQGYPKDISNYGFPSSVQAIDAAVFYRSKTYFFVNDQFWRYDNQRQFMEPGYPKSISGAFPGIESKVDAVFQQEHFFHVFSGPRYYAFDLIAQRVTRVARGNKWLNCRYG
Sequence of Matrix metalloproteinase-9 (P14780 whole entry): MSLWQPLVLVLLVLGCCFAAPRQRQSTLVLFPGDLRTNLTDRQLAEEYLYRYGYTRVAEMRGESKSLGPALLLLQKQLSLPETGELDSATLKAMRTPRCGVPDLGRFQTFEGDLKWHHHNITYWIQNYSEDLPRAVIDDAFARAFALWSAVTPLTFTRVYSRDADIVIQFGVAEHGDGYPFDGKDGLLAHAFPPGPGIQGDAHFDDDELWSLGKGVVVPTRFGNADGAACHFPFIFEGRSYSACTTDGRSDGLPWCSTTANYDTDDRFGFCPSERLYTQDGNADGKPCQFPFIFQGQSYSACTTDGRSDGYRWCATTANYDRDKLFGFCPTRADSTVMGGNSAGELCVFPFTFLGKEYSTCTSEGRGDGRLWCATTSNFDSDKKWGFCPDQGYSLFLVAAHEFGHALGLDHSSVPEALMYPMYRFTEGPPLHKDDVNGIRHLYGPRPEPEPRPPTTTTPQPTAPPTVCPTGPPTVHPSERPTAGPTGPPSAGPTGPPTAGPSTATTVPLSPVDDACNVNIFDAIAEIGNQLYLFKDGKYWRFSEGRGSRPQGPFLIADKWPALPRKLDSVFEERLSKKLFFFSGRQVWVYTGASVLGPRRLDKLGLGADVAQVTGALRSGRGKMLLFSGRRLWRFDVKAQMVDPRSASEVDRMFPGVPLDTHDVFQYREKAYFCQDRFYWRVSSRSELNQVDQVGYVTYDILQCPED

Compound	pKi (Interstitial collagenase)	pKi [1]	pKi (Neutrophil collagenase)	pKi (Stromelysin-1)
CNC(=O)[C@H](Cc1c[nH]c2ccccc12)NC(=O)[C@H](C)CC(=O)NO	5.07	6.30	5.38	4.40
CC[C@H](CC(=O)NO)C(=O)N[C@@H](Cc1c[nH]c2ccccc12)C(=O)NC	6.74	7.70	7.00	5.57
CNC(=O)[C@H](Cc1ccccc1)NC(=O)[C@H](CCCCCOc1ccccc1)CC(=O)NO	–	9.51	–	–
CNC(=O)[C@H](Cc1ccccc1)NC(=O)[C@@H](CC(=O)NO)CC(C)C	–	8.85	–	–
CCCCC[C@H](CC(=O)NO)C(=O)N[C@H](C(=O)N1CCCC1CO)C(C)C (some centres undefined)	6.52	6.48	6.72	5.77
CNC(=O)[C@@H](NC(=O)[C@H](CCCCOCc1ccccc1)CC(=O)NO)C(C)(C)C	–	7.96	8.33	7.41
CCCCCc1ccc(OCCCC[C@H](CC(=O)NO)C(=O)N[C@H](C(=O)NC)C(C)(C)C)cc1	–	8.42	–	–
CNC(=O)[C@H](Cc1ccccc1)NC(=O)[C@H](CCCCCCc1ccccc1)CC(=O)NO	5.08	8.89	> 8.70	7.96
CNC(=O)[C@H](Cc1c[nH]c2ccccc12)NC(=O)[C@@H](CC(=O)NO)CC(C)C [ILOMASTAT]	–	–	–	7.34
CNC(=O)CNC(=O)[C@H](CCCCOCc1ccccc1)CC(=O)NO	< 7.00	5.25	6.77	5.46
CNC(=O)[C@H](Cc1ccccc1)NC(=O)[C@H](CCCCOc1ccccc1)CC(=O)NO	–	8.92	–	–
CNC(=O)[C@H](Cc1ccccc1)NC(=O)[C@H](CCCCOCc1ccccc1)CC(=O)NO	–	8.48	–	–
